From US20260060982A1, “USE OF BTK INHIBITOR AND SINGLE-DOSE DRUG” (HUBEI BIO-PHARMACEUTICAL INDUSTRIAL TECHNOLOGICAL INSTITUTE …, priority 2023, published 2026)

How the values were obtained:
[1] = tested on: anti-DNP IgE-induced passive cutaneous anaphylaxis in BALB/c mice; experiment: Passive cutaneous anaphylaxis (PCA) model in mice induced with anti-DNP IgE; format: in vivo
Description: Passive cutaneous anaphylaxis test, also known as PCA reaction, is a local allergic reaction caused by antibodies that bind to the same or different animal tissues. The PCA animal model in the present disclosure was a passive sensitization model in which IgE binds to specific receptors on skin mast cells. When allergens were stimulated, local mast cells released allergic mediators, thereby increasing local vascular permeability. […] The specific steps were as follows:
The PCA model in mice was induced using anti-DNP IgE. Specifically, BALB/c mice were divided into 9 groups, namely, a normal control group (no administration, injection, or feeding of any solvent), a model group (no administration, injection, or feeding of any solvent), a prednisone group (10 mg/kg, administered for 3 consecutive days, QD (once a day), prednisone concentration of 1 mg/mL, and an administration volume of 10 mL/kg), a cetirizine group (20 mg/kg, administered for 3 consecutive days, QD, cetirizine concentration of 2 mg/mL, and an administration volume of 10 mL/kg), a low-dose group and a medium-dose group for the test substance LOU-064 (15 mg/kg and 45 mg/kg, administered for 3 consecutive days, BID (twice a day), LOU-064 concentrations of 1.5 mg/mL and 4.5 mg/mL, and an administration volume of 10 mL/kg), and a low-dose group, a medium-dose group, and a high-dose group for compound (I) (15 mg/kg, 45 mg/kg, and 90 mg/kg, administered for 3 consecutive days, BID, compound (I) concentrations of 1.5 mg/mL, 4.5 mg/mL, and 9 mg/mL, and an administration volume of 10 mL/kg), with 9 mice in each group, administered by gavage for a total of 4 days. On day 3 of the administration, anti-DNP IgE (Sigma-Aldrich) was injected into the left ears of 8 groups of mice (no normal control group), and the same volume of PBS was injected into the right ears of 8 groups and the left and right ears of the normal control group to allow it to bind to mast cells. Then, 24 hours after the fourth day of anti-DNP IgE injection, a mixed solution of antigen (DNP-HAS, Sigma) and pigment Evan's Blue (Sigma) (0.25 mL/mouse, i.v.) was injected into the tail vein (the normal control group was injected with the same volume of the mixed solution of antigen and pigment Evan's Blue). The antigen reacted with the antibody attached to the mast cells, causing a local allergic reaction, increased local vascular permeability, and pigment penetration into the tissue. The reaction intensity was determined by measuring the local pigment content 30 minutes later. The dye was extracted from the left and right ears, and the absorbance of Evan's blue was measured at a specific wavelength. […] The efficacy effects of each test substances in the PCA animal model were evaluated.

[2] = tested on: PG-PS-induced arthritis in Lewis rats; experiment: PG-PS-induced arthritis model in rats; format: in vivo
Description: Intraperitoneal injection of PG-PS suspension can effectively induce chronic, erosive, and relapsing symptoms similar to human rheumatoid arthritis in rats, and is often used to evaluate the in vivo effectiveness of medicaments in the early discovery of arthritis medicaments. The specific steps were as follows:
On day 0, Lewis rats were randomly divided into 6 groups, with 5 rats in the first group and 10 rats in each group from the second group to the sixth group. All rats in the second to sixth groups were intraperitoneally injected with PG-PS (Lee Laboratories, PG-PS 10S, 5.1 mg/ml Rhamnose) to establish the model. The PG-PS injection dose v=15 μg/g×bw (rat weight, in g)/5.1 μg/μL.
On day 1, the model rats (the second to sixth groups) were randomly redivided into 5 groups, with 10 rats in each group. The animals in each group were given the corresponding medicament or vehicle by gavage once a day until the 29th day. […] Clinical observations and clinical scoring were performed daily during the administration period. The ankle diameter of each animal after modeling was subtracted from its ankle diameter before modeling to obtain the ankle diameter difference (delta ankle diameter). The area under the curve (AUC) was calculated by analyzing the ankle diameter difference of each animal in each group. The inhibition rate of each administration group relative to the blank vehicle control was calculated by the average AUC between groups.
Pathology: On day 30, the rats were euthanized. The two hind limbs of rats were stained with toluidine blue to evaluate the degree of joint damage in terms of inflammatory cell lesions, pannus formation, cartilage damage, bone resorption, and periosteal new bone formation, and the severity was scored on a scale from 0 to 7.

[3] = tested on: collagen-induced arthritis in DBA/1 mice; experiment: Collagen-induced arthritis (CIA) model in mice; format: in vivo
Procedure: Clinical symptoms of arthritis were induced in mice by injecting collagen emulsion into the tail of mice. The specific steps were as follows:
DBA/1 mice were randomly divided into 6 groups, with 10 mice in each group except the blank control group (5 mice). […] The day of the first immunization was recorded as day 0, and the subsequent days were marked in sequence. DBA/1 mice were anesthetized with isoflurane and injected subcutaneously with 50 μl of the prepared collagen emulsion (containing 200 μg of CII) at the tail (2 cm to 3 cm from the base of the tail). On day 21, the same volume of collagen emulsion was injected into the tail in the same way.
On day 28, when the average clinical score reached 1 to 2, the mice were randomly redivided into 4 treatment groups (10 mice per group) and a blank vehicle control group (10 mice per group) according to body weight and score. […] The administration was performed once daily for 14 days by gavage at 10 mL/kg. After the administration, the clinical score curve of each animal in each group was analyzed to calculate the area under the curve (AUC). The inhibition rate of each administration group relative to the blank vehicle control was calculated based on the average AUC between groups.
Clinical observation: From 7 days before immunization to 21 days after immunization, the basic health status and weight changes of DBA/1 mice were observed daily (recorded twice a week). After day 22, the health status, disease incidence, and weight changes of the mice were observed daily (recorded every two days) until the end of the experiment.
When mice began to develop symptoms of arthritis (clinical symptoms of arthritis appeared), they were scored on a scale from 0 to 4 based on the severity of the lesions (redness, swelling, joint deformation), with a maximum score of 4 for each limb and a maximum score of 16 for each animal. The scoring was performed at least three times a week.
Pathology: On day 42, mice were euthanized. The two hind limbs of the mice were taken, soaked in 10% formalin solution, decalcified with formic acid solution, embedded in paraffin, sectioned, stained with hematoxylin-eosin (HE), and observed under a microscope. The degree of joint damage was evaluated from four aspects: inflammatory cell infiltration, pannus formation, cartilage damage, and bone resorption, and scored on a scale from 0 to 4.

[4] = tested on: IgM-induced calcium signaling in RAMOS cells; experiment: Antagonism of IgM-induced calcium signaling in RAMOS cells (FLIPR); format: cell-based; conditions: Fluo-4D dye
Procedure: The specific test steps were as follows:
A. Ramos cells (ECACC) were seeded in a 384 experimental plate using cell culture medium (RPMI 1640 medium supplemented with 10% fetal bovine serum) at a density of 5×10^6 cells/mL, 20 μL per well.
C. The cell plate and the compound plate were placed into FLIPR. 10 μL was transferred from the compound plate by the FLIPR instrument and added to the cell plate. The cell plate was removed and incubated in a 37° C. incubator for 1 h.
D. One hour later, 40 μL of Fluo-4D dye (Life Technologies, formulated as 0.5× with 40 mL of HBSS and HEPES buffer) was added to the cell plate and incubated at 37° C. for 50 min.
E. 10 μL of IgM at 8×EC80 concentration was added, and the plate was read using FLIPR.
F. The IC50 results of the compounds were analyzed using EXCEL and Prism statistical software.

## C=CC(=O)N(C)CCOc1c(N)ncnc1-c1cc(F)cc(NC(=O)c2ccc(C3CC3)cc2F)c1C [LOU-064, reference compound]
[1]; 15 mg/kg BID by gavage
  Concentration of Evan's Blue, Left ear, Average value: 24.45 µg/mL
[1]; 45 mg/kg BID by gavage
  Concentration of Evan's Blue, Left ear, Average value: 17.24 µg/mL

## C=CC(=O)Nc1cccc(Nc2nc(Nc3ccc(OCCOC)cc3)ncc2F)c1 [CC-292, reference compound]
[2]; 3 mg/kg once a day by gavage until the 29th day
  inhibition rate (AUC of ankle diameter difference vs blank vehicle control): −0.1%
[2]; 3 mg/kg, day 30
  joint tissue lesions (pathology): more severe
[3]; 3 mg/kg
  histopathological score compared with the blank vehicle control group: not significantly different
[3]; 3 mg/kg once daily by gavage for 14 days
  inflammation inhibition rate (AUC of clinical score vs blank vehicle control): 29.1%
[3]; 3 mg/kg, day 42
  pathology of foot joint bone tissue: certain inflammation and more bone tissue damage
[4]
  IC50: 171 ± 4.03 nM

## O=C(O)COCCN1CCN(C(c2ccccc2)c2ccc(Cl)cc2)CC1 (stereo not shown) [Cetirizine, cetirizine, reference compound]
[1]; 20 mg/kg QD by gavage
  Concentration of Evan's Blue, Left ear, Average value: 22.70 µg/mL

## C[C@]12C=CC(=O)C=C1CC[C@@H]1[C@@H]2C(=O)C[C@@]2(C)[C@H]1CC[C@]2(O)C(=O)CO [Prednisone, prednisone, reference compound]
[1]; 10 mg/kg QD by gavage
  Concentration of Evan's Blue, Left ear, Average value: 25.36 µg/mL
